SMILES strings stand for the structures. pIC50, pKd: −log10 of the molar value.

The results in this text go back to ChEMBL document CHEMBL3822451, “Structure-based design and synthesis of small molecular inhibitors disturbing the interaction of MLL1-WDR5” (Eur J Med Chem, 2016).

The first test has as its target T1, WD repeat-containing protein 5 (Homo sapiens, UniProt P61964). As to the kind of experiment: Inhibition of 10mer-Thr-FAM probe binding to His-tagged human WDR5 expressed in Escherichia coli incubated for 2 hrs by fluorescence polarization assay.
The compound `COc1cccc(NC(=O)c2cc([N+](=O)[O-])ccc2N2CCN(C)CC2)c1` gave a pIC50 of under 4.70.
Same read-out and setting: the result for `COc1ccc(S(=O)(=O)Nc2cc([N+](=O)[O-])ccc2N2CCN(C)CC2)cc1OC` reads under 4.70.
On the same count and under the same terms, the value for `Cc1c(F)ccc(C(=O)Nc2cc(-c3ccc(N)cc3)ccc2N2CCN(C)CC2)c1Cl` was 6.69.
On the same count and under the same terms, the result for `Cc1c(F)ccc(C(=O)Nc2cc(N)ccc2N2CCN(C)CC2)c1Cl` reads under 4.70; that for `Cc1c(F)ccc(C(=O)Nc2ccc(-c3ccc(C(=O)O)cc3)cc2N2CCN(C)CC2)c1Cl`, under 4.70; that for `CN1CCN(c2ccc([N+](=O)[O-])cc2NS(=O)(=O)c2ccc(F)cc2)CC1`, under 4.70.
In turn, `Cc1c(F)ccc(C(=O)Nc2ccc(-c3ccncc3)cc2N2CCN(C)CC2)c1Cl` showed a pIC50 of under 4.70.
The same measure, in the same setting: the result for `CN1CCN(c2ccc([N+](=O)[O-])cc2C(=O)Nc2ccccc2Cl)CC1` reads under 4.70; that for `Cc1c(F)ccc(C(=O)Nc2ccc(-c3ccc([N+](=O)[O-])cc3)cc2N2CCN(C)CC2)c1Cl`, under 4.70.
As to `Cc1c(F)ccc(C(=O)Nc2cc(-c3ccncc3)ccc2N2CCN(C)CC2)c1Cl`, the pIC50 is 6.98.
`Cc1c(F)c([N+](=O)[O-])cc(C(=O)Nc2cc(-c3ccccc3)ccc2N2CCN(C)CC2)c1Cl` had a pIC50 of 6.68. Compared with the last compound, the pIC50 is 0.30 log units lower.
Compound `Cc1c(F)ccc(C(=O)Nc2ccc(-c3ccc(N)cc3)cc2N2CCN(C)CC2)c1Cl` had a pIC50 of under 4.70.
Still for that read-out and setting: the result for `Cc1c(F)ccc(C(=O)Nc2cc(-c3ccccc3)ccc2N2CCN(C)CC2)c1Cl` reads 6.33.
On to `Cc1cc(C)c(S(=O)(=O)Nc2cc([N+](=O)[O-])ccc2N2CCN(C)CC2)c(C)c1`, for which the pIC50 is under 4.70.
On the same count and under the same terms, the result for `COc1ccc(S(=O)(=O)Nc2cc([N+](=O)[O-])ccc2N2CCN(C)CC2)cc1` reads under 4.70.
On the same count and under the same terms, the value for `CN1CCN(c2ccc([N+](=O)[O-])cc2C(=O)Nc2ccc(F)cc2F)CC1` was under 4.70.

For another test, the target named is T1, WD repeat-containing protein 5. As to the kind of experiment: Binding affinity to His-tagged human WDR5 expressed in Escherichia coli by isothermal titration calorimetry.
In turn, `Cc1c(F)ccc(C(=O)Nc2cc(-c3ccncc3)ccc2N2CCN(C)CC2)c1Cl` gave a pKd of 6.88.
